From patent USRE36477E, “Benzoic acid derivatives and process for preparing the same” (Taiho Pharmaceutical Co., Ltd., priority 1988, dated 1999)

What follows are compounds tested on human acute promyelocytic leukemia cells (HL-60) (assay: Differentiation of human acute promyelocytic leukemia cells (HL-60), morphological changes of nuclei and NBT reduction). Conditions: HL-60 cells, 4 days culture, Wright-Giemsa stain.
Assay type: cell-based
Procedure: The test of the activities of the compounds of this invention has been conducted by measuring the concentration required for inducing the differentiation of human acute promyelocytic leukemia cells (HL 60), according to the methods described in detail hereinafter.
The HL-60 cells are cultured in plastic flasks in RPMI 1640 medium supplemented with 5% heat-inactivated fetal calf serum and antibiotics (penicillin G and streptomycin). The cells (3×10^4 /ml) are cultured with a compound of the present invention for 4 days. The cells are fixed and stained with Wright-Giemsa to examine the morphological changes of the nuclei. […] The biochemical activity of cells treated with the compound is measured as follows:
The cells after 5 days incubation are centrifuged and diluted with RPMI 1640 medium, supplemented with 5% fetal calf serum, to provide a definite number of the cells. To the diluted cell suspension are then added 200 ng/ml of 12-o-tetradodecanoylphorbol-13-acetate (TPA) and the resulting culture medium is then incubated for 20 minutes at 37° C. in the presence of 0.1% of NBT. Thus, the mature differentiated cells containing blue-black formazan are counted by microscope, so that the ratio of the cells having the ability to reduce NBT, to total cells, can be calculated.
As a positive control for comparison, the known compounds represented by the formula (II) and trans retinoic acid were used.

| Compound | morphological changes of the nuclei (differentiation) |
| --- | --- |
| CC1=C(/C=C/C(C)=C/C=C/C(C)=C/C(=O)O)C(C)(C)CCC1 [retinoic acid] | differentiated to mature granulocytes (myelocytes, metamyelocytes and neutrophiles) |

Same assay, conditions: Homo sapiens, 96 h; HL-60 cells; Table 1; read-out: ED50 (effective doses which cause differentiation of 50% of the cultured cells)

| EC50 | Compound |
| --- | --- |
| 1000 nM | CC(C)(C)c1cccc(NC(=O)c2ccc(C(=O)O)cc2)c1 |
| 0.4 nM | CC(C)(C)c1cc(C(=O)/C=C/c2ccc(C(=O)O)cc2)cc(C(C)(C)C)c1 |
| 100 nM | CC(C)(C)c1cccc(C(=O)/C=C/c2ccc(C(=O)O)cc2)c1 |

| Compound | EC50 |
| --- | --- |
| C[Si](C)(C)c1cc(NC(=O)c2ccc(C(=O)O)cc2)cc([Si](C)(C)C)c1 | 20 nM |

Same assay, conditions: Homo sapiens, HL-60, 96 h, read-out: ED50 (effective doses which cause differentiation of 50% of the cultured cells)

| Compound | EC50 |
| --- | --- |
| C[Si](C)(C)c1cccc(/C=C/c2ccc(C(=O)O)cc2)c1 | 60 nM |
| CC1=C(/C=C/C(C)=C/C=C/C(C)=C/C(=O)O)C(C)(C)CCC1 [retinoic acid] | 2 nM |
| C[Si](C)(C)c1cccc(NC(=O)c2ccc(C(=O)O)cc2)c1 | 80 nM |
| C[Si](C)(C)c1cc(C(=O)/C=C/c2ccc(C(=O)O)cc2)cc([Si](C)(C)C)c1 | 0.2 nM |
